US11420975B2, “Substituted imidazo[1,5-a]pyrazines as Bruton's tyrosine kinase inhibitors” (TRANSTHERA SCIENCES (NANJING), INC., priority 2018, dated 2022)

Target: BTK(wt) (Homo sapiens (Human), UniProt Q06187)
Assay: pBTK inhibition in HEK293 cells transfected with BTK(wt) (ELISA)
Assay type: cell-based
Settings: 2 h
Experimental: For positive (high signal) controls, cells were treated with 0.5% DMSO alone. […] The absorbance was read at 450 nm. • Based on the absorbance readings of the positive and negative control values, the % inhibition value was calculated according to the following formula: (% INH=((positive control−sample)/(positive control−negative control))×100. • The Z′ value was calculated based on the following formula: 1−((3×standard deviation of positive+3×standard deviation of negative)/(mean positive−mean negative)). • The […] was plotted using GraphPad Prism. • IC50 values were determined after sigmoidal dose-response curve fitting.

Sequence of BTK(wt) (Q06187 whole entry): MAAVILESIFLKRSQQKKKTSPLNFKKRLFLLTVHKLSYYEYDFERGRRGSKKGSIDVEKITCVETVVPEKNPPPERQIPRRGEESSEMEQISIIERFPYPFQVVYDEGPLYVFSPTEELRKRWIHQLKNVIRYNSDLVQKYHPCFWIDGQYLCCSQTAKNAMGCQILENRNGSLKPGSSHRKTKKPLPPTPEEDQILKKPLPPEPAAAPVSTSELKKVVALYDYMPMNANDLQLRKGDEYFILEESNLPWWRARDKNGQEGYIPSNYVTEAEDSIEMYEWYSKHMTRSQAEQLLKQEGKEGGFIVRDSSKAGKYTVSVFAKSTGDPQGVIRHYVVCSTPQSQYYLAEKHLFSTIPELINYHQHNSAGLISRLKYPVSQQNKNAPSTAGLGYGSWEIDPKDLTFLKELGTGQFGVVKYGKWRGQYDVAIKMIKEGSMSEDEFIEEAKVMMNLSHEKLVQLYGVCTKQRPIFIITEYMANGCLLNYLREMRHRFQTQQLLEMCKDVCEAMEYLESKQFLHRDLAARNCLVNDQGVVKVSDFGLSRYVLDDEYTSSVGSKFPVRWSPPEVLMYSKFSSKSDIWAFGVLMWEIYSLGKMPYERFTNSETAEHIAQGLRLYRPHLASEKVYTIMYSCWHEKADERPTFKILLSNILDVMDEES

Molecule Nc1nccn2c(C34CCC(NC(=O)CN5CCOCC5)(CC3)C4)nc(-c3ccc(C(=O)Nc4cc(C(F)(F)F)ccn4)cc3)c12 [Compound A-10-10, 4-(8-amino-3-(4-(2-morpholinoacetamido)bicyclo[2.2.1]heptan-1-yl)imidazo[1,5-a]pyrazin-1-yl)-N-(4-(trifluoromethyl)pyridin-2-yl)benzamide] has an IC50 of 77 nM.
